How the values were obtained:
[1] = tested on: rats; test: Acute toxicity, oral LD50 in rats; assay type: in vivo; details: relative to reuterin
Excerpt: (§1) Biotechnologically produced 3-HPA and the 3-HPA derivatives, such as the cyclic dimeric form of FIG. 2 and others described herein, have a high potential as a food preservative and within health care. […] See Fernandez-Cruz M. L, Martín-Cabrejas I., Palacio J. P., Gaya P., Díaz-Navarro C., Navas J. M., Medina M., Arques J. L., “In vitro toxicity of reuterin, a potential food biopreservative,” Food and Chemical Toxicology 96, 2016, 155-159. In contrast for acrolein, the median intraperitoneal (i.p.) lethal dose 50 (LD50) was estimated to be 7 mg/kg by weight (bw) for mice. The acute toxicity of diacetyl after i.p. exposure in rats is low (525 mg/kg bw). […] The acute toxicity LD50 oral for propargyl alcohol is 20 mg/kg for rats. See Propargyl alcohol, MSDS, Aldrich-Sigma. Overall, the typical polymerizable corrosion inhibitors, i.e. acrolein and propargyl alcohol are 36 and 12 times respectively more toxic than reuterin.

[2] = tested on: rats; details: cited from earlier work
[3] = tested on: rats; details: cited from earlier work; remark: listed apart in the source
[4] = cited from earlier work
[5] = tested on: Listeria monocytogenes; details: in meat products, milk and cottage cheese; cited from earlier work
[6] = tested on: Escherichia coli; details: in meat products, milk and cottage cheese; cited from earlier work
[7] = Corrosion rate by weight loss analysis of steel coupons in inhibited hydrochloric acid; details: 3.57 mmol, 80° C.
Excerpt: The corrosion rates were studied by weight loss analysis. The low carbon steel HS80 tubing were cut into coupons of 29±3 cm^2 surface area using a water cooled band saw to minimize any changes in the properties of the metal that may result from heating. After cutting, the coupons were stamped for identification, glass bead blasted and cleaned in acetone to remove any residue from the machining process. The coupons were then dried, placed in plastic bags and stored in airtight jars to prevent contact with humidity or airborne contaminants. The initial surface area of each test coupon was determined by accurate (to four decimal places) measurement of its geometric dimensions.
Throughout the exposure period, isothermal conditions are maintained (for the present study, the temperature was maintained at 80° C.) and the inhibited acid is continuously stirred using a magnetic stirrer bar. Since the tests were designed to simulate oil well acid stimulation, no effort was made to remove dissolved oxygen from the acid. However, an argon blanket was used to stop any additional intrusion of oxygen during the one hour exposure period. Following each test, the coupons were rinsed in acetone and scrubbed with soap and water to remove residual inhibitor and corrosion deposits. […]

[8] = tested on: mice; test: Acute toxicity, intraperitoneal LD50 in mice; assay type: in vivo; details: relative to reuterin
Excerpt: as §1

[9] = tested on: mice; details: cited from earlier work

C#CCO [Propargyl alcohol]
times more toxic than reuterin [1]: 12 times
acute toxicity LD50 oral [2]: 20 mg/kg

CC(=O)C(C)=O [diacetyl]
acute toxicity after i.p. exposure [3]: 525 mg/kg bw

O=CCCO [3-HPA, 3-Hydroxypropionaldehyde]
i.p. LD50 ([4]; i.p.): approximately 250 mg/kg bw
toxicity relative to diacetyl ([4]; relative to diacetyl): two times more toxic than diacetyl
growth inhibition [5]: inhibit the growth
growth inhibition [6]: inhibit the growth
inhibition efficiency ([7]; 4M HCl): 89%
inhibition efficiency ([7]; 28% HCl (so in the source)): 97%

C=CC=O [Acrolein]
times more toxic than reuterin [8]: 36 times
median intraperitoneal (i.p.) lethal dose 50 (LD50) [9]: 7 mg/kg by weight (bw)
